Test system: 242566-281-R-J2-PDC complex spheroid viability
Assay: Anticancer human tumor 242566-281-R-J2-PDC patient-derived pancreatic carcinoma cell line growth inhibition [RAS]
Details: for viability, T/C: stronger effect = lower value
Method in brief: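 Multi-cell-type spheroids: tumor cells plus HUVEC endothelial cells and mesenchymal stem cells. RAS-pathway inhibitors were combined with targeted agents, each dosed in half-log steps down from clinical Cmax, or from 10 microM when Cmax was unknown.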
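Further: spheroids exposed to compound for 7 days before readout.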
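Wherever viability, T/C is given: 100% = DMSO vehicle control wells.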

CCN1CCN(Cc2ccc(Nc3ncc(F)c(-c4cc(F)c5nc(C)n(C(C)C)c5c4)n3)nc2)CC1 + C=CC(=O)N1CCN(c2nc(OCC3CCCN3C)nc3c(F)c(-c4nc(N)cc(C)c4C(F)(F)F)c(Cl)cc23)C(C)C1
IC50 (curve of first compound, second compound 0.00316 µM): > 1000 nM | IC50 (curve of first compound, second compound 0.01 µM): > 1000 nM | IC50 (curve of first compound, second compound 0.0316 µM): > 1000 nM | IC50 (curve of first compound, second compound 0.1 µM): > 1000 nM | IC50 (curve of first compound, second compound 0.316 µM): > 1000 nM | IC50 (curve of first compound, second compound 1 µM): > 1000 nM | viability, T/C (second compound 0.00316 µM, first compound 0.00316 µM): 121% | viability, T/C (second compound 0.00316 µM, first compound 0.01 µM): 135% | viability, T/C (second compound 0.00316 µM, first compound 0.0316 µM): 100% | viability, T/C (second compound 0.00316 µM, first compound 0.1 µM): 90.5% | viability, T/C (second compound 0.00316 µM, first compound 0.316 µM): 123% | viability, T/C (second compound 0.00316 µM, first compound 1 µM): 167% | viability, T/C (second compound 0.01 µM, first compound 0.00316 µM): 95.2% | viability, T/C (second compound 0.01 µM, first compound 0.01 µM): 160% | viability, T/C (second compound 0.01 µM, first compound 0.0316 µM): 101% | viability, T/C (second compound 0.01 µM, first compound 0.1 µM): 88.8% | viability, T/C (second compound 0.01 µM, first compound 0.316 µM): 127% | viability, T/C (second compound 0.01 µM, first compound 1 µM): 154% | viability, T/C (second compound 0.0316 µM, first compound 0.00316 µM): 104% | viability, T/C (second compound 0.0316 µM, first compound 0.01 µM): 120% | viability, T/C (second compound 0.0316 µM, first compound 0.0316 µM): 102% | viability, T/C (second compound 0.0316 µM, first compound 0.1 µM): 108% | viability, T/C (second compound 0.0316 µM, first compound 0.316 µM): 131% | viability, T/C (second compound 0.0316 µM, first compound 1 µM): 169% | viability, T/C (second compound 0.1 µM, first compound 0.00316 µM): 115% | viability, T/C (second compound 0.1 µM, first compound 0.01 µM): 136% | viability, T/C (second compound 0.1 µM, first compound 0.0316 µM): 97.9% | viability, T/C (second compound 0.1 µM, first compound 0.1 µM): 89.3% | viability, T/C (second compound 0.1 µM, first compound 0.316 µM): 130% | viability, T/C (second compound 0.1 µM, first compound 1 µM): 167% | viability, T/C (second compound 0.316 µM, first compound 0.00316 µM): 98.1% | viability, T/C (second compound 0.316 µM, first compound 0.01 µM): 134% | viability, T/C (second compound 0.316 µM, first compound 0.0316 µM): 94.5% | viability, T/C (second compound 0.316 µM, first compound 0.1 µM): 99.9% | viability, T/C (second compound 0.316 µM, first compound 0.316 µM): 154% | viability, T/C (second compound 0.316 µM, first compound 1 µM): 154% | viability, T/C (second compound 1 µM, first compound 0.00316 µM): 94.2% | viability, T/C (second compound 1 µM, first compound 0.01 µM): 136% | viability, T/C (second compound 1 µM, first compound 0.0316 µM): 94.9% | viability, T/C (second compound 1 µM, first compound 0.1 µM): 96.8% | viability, T/C (second compound 1 µM, first compound 0.316 µM): 138% | viability, T/C (second compound 1 µM, first compound 1 µM): 160%

CCC(CC)c1cc(NC2CCC(N)C2)n2nccc2n1 (centres undefined) + CCn1c(-c2cccnc2C(C)OC)c2c3cc(ccc31)N1CCOC(CC(NC(=O)C(C(C)C)N(C)C(=O)C3(F)CCN(C(=O)C#CC(C)(C)N(C)C)CC3)C(=O)N3CCCC(N3)C(=O)OCC(C)(C)C2)C1
IC50 (curve of first compound, second compound 0.000949 µM): 2760 nM | IC50 (curve of first compound, second compound 0.003 µM): 2750 nM | IC50 (curve of first compound, second compound 0.00949 µM): 2180 nM | IC50 (curve of first compound, second compound 0.03 µM): 1870 nM | IC50 (curve of first compound, second compound 0.0949 µM): 1670 nM | IC50 (curve of first compound, second compound 0.3 µM): 1500 nM | viability, T/C (second compound 0.000949 µM, first compound 0.0316 µM): 89.3% | viability, T/C (second compound 0.000949 µM, first compound 0.1 µM): 91.4% | viability, T/C (second compound 0.000949 µM, first compound 0.316 µM): 91.1% | viability, T/C (second compound 0.000949 µM, first compound 1 µM): 97.8% | viability, T/C (second compound 0.000949 µM, first compound 3.16 µM): 44.2% | viability, T/C (second compound 0.000949 µM, first compound 10 µM): 1.81% | viability, T/C (second compound 0.003 µM, first compound 0.0316 µM): 97.9% | viability, T/C (second compound 0.003 µM, first compound 0.1 µM): 112% | viability, T/C (second compound 0.003 µM, first compound 0.316 µM): 102% | viability, T/C (second compound 0.003 µM, first compound 1 µM): 105% | viability, T/C (second compound 0.003 µM, first compound 3.16 µM): 42.4% | viability, T/C (second compound 0.003 µM, first compound 10 µM): 1.8% | viability, T/C (second compound 0.00949 µM, first compound 0.0316 µM): 107% | viability, T/C (second compound 0.00949 µM, first compound 0.1 µM): 77.5% | viability, T/C (second compound 0.00949 µM, first compound 0.316 µM): 86.7% | viability, T/C (second compound 0.00949 µM, first compound 1 µM): 87.6% | viability, T/C (second compound 0.00949 µM, first compound 3.16 µM): 32% | viability, T/C (second compound 0.00949 µM, first compound 10 µM): 2.19% | viability, T/C (second compound 0.03 µM, first compound 0.0316 µM): 93.3% | viability, T/C (second compound 0.03 µM, first compound 0.1 µM): 86.3% | viability, T/C (second compound 0.03 µM, first compound 0.316 µM): 89.9% | viability, T/C (second compound 0.03 µM, first compound 1 µM): 84.3% | viability, T/C (second compound 0.03 µM, first compound 3.16 µM): 21.4% | viability, T/C (second compound 0.03 µM, first compound 10 µM): 2.92% | viability, T/C (second compound 0.0949 µM, first compound 0.0316 µM): 106% | viability, T/C (second compound 0.0949 µM, first compound 0.1 µM): 96.6% | viability, T/C (second compound 0.0949 µM, first compound 0.316 µM): 90% | viability, T/C (second compound 0.0949 µM, first compound 1 µM): 80.5% | viability, T/C (second compound 0.0949 µM, first compound 3.16 µM): 12.4% | viability, T/C (second compound 0.0949 µM, first compound 10 µM): 3.14% | viability, T/C (second compound 0.3 µM, first compound 0.0316 µM): 82.4% | viability, T/C (second compound 0.3 µM, first compound 0.1 µM): 89.8% | viability, T/C (second compound 0.3 µM, first compound 0.316 µM): 84.7% | viability, T/C (second compound 0.3 µM, first compound 1 µM): 69.2% | viability, T/C (second compound 0.3 µM, first compound 3.16 µM): 15.2% | viability, T/C (second compound 0.3 µM, first compound 10 µM): 2.62%

C=CC(=O)Nc1cc(Nc2nccc(-c3cn(C)c4ccccc34)n2)c(OC)cc1N(C)CCN(C)C
viability, T/C (compound 0.00316 µM): 105% [middle of 4 runs] | viability, T/C (compound 0.01 µM): 101% [middle of 4 runs] | viability, T/C (compound 0.0316 µM): 90.5% [middle of 4 runs] | viability, T/C (compound 0.1 µM): 91.2% [middle of 4 runs] | IC50 (curve of compound): > 1000 nM
